US11312726B2, “Thienodiazepine derivatives and application thereof” (priority 2017, dated 2022)

Legend:
[1] = target: BRD4-BD2 (Homo sapiens (Human), UniProt O60885); assay: BRD4 biochemical activity test (TR-FRET), BD2; settings: read-out: BRD4 Binding (BD2), IC50
From the text: (§1) BRD4 Biochemical Activity Test
(§2) 1) BRD4-BD1 and BRD4-BD2 proteins of BPS Company, polypeptide of ANASPEC Company, and test reagent of PerkinElmer Company were used in the experiments;
(§3) 2) The TR-FRET experimental principle was used in the experiment to screen compounds.
(§4) 3) Relevant control compounds
(§5) 1) Preparation of the Compound Plate:
(§6) Preparation of the compound plate in the experiment was achieved by Echo:
(§7) 2) Preparation of Reaction Reagents:
(§8) Relevant reaction reagents should be prepared on the day of the experiment:
(§9) a) Formulation of 1× assay buffer;
(§10) b) Formulation of 3× component solution for the experiment: […]
(§11) 1. The reagent was taken out and placed on ice to naturally melt for later use;
(§12) 2. “Solution A” (protein solution), “solution B” (polypeptide solution), and “solution C” (test reagent solution) used in the experiment were formulated with the 1× assay buffer, and during the formation of the 3× solution from the components used in the experiment reaction system, the amounts of solutions A, B and C must be enough for the required amounts in the experiment.
(§13) 3) Experimental Operation Steps:
(§14) The experiment plate was a plate that contained a gradient concentration of the compound and a corresponding DMSO solution and was prepared with ECHO before the experiment:
(§15) a) The experiment plate was taken out, and 5 μL/well of “solution A” (protein solution) was added to columns 2-23 of the experiment plate, then 5 μL/well of 1× assay buffer was added to columns 1 and 24 of the experiment plate, and columns 1 and 24 were used as Min control in the experiment system;
(§16) b) Centrifugation at 1000 rpm was carried out for 30 seconds;
(§17) c) The plate was incubated at 23° C. for 20 minutes;
(§18) d) After 20 minutes of incubation, 5 μL/well of “solution B” (polypeptide solution) was added to columns 1-24 of the experiment plate;
(§19) e) Centrifugation at 1000 rpm was carried out for 30 seconds;
(§20) f) The plate was incubated at 23° C. for 20 minutes;
(§21) g) After 20 minutes of incubation, 5 μL/well of “solution C” (test reagent solution) was added to columns 1-24 of the experiment plate;
(§22) h) Centrifugation at 1000 rpm was carried out for 30 seconds;
(§23) i) The plate was incubated at 23° C. for 40 minutes;
(§24) j) The experiment plate was placed on EnVision to read the plate.
(§25) a) The corresponding Max control and Min control of each experiment plate were used to convert to the Z′ value of the experiment plate, and the Z′ value of each plate was ensured to be >0.5;
(§26) b) The IC50 value was calculated from the signal of the control compound by XLFIT5, and ensured to be maintained within 3 times of the average value of historical data.

[2] = target: BRD4-BD1 (Homo sapiens (Human), UniProt O60885); assay: BRD4 biochemical activity test (TR-FRET), BD1; settings: read-out: BRD4 Binding (BD1), IC50
From the text: as §1, §2, §3, §4, §5, §6, §7, §8, §9, §10, §11, §12, §13, §14, §15, §16, §17, §18, §19, §20, §21, §22, §23, §24, §25, §26

**Q.** `Cc1sc2c(c1C)C(c1ccc(Cl)cc1)=N[C@@H](CC(=O)Nc1ccc3c(c1)C(=O)NC3)c1nnc(C)n1-2` [Compound 1] was tested. Which IC50 [1] did it give?
**A.** 11 nM

**Q.** What about the IC50 [2] of the same compound?
**A.** 65 nM

**Q.** For `Cc1sc2c(c1C)C(c1ccc(Cl)cc1)=N[C@@H](CC(=O)Nc1ccc3c(c1)CNC3=O)c1nnc(C)n1-2` [Compound 2], which IC50 [1] is on record?
**A.** 10 nM

**Q.** And the IC50 [2]?
**A.** 49 nM

**Q.** How did the IC50 [1] turn out when `Cc1sc2c(c1C)C(c1ccc(Cl)cc1)=N[C@@H](CC(=O)Nc1ccn3c(=O)c(O)cnc3c1)c1nnc(C)n1-2` [Compound 5] was run?
**A.** 9 nM

**Q.** What about the IC50 [2] of the same compound?
**A.** 83 nM

**Q.** `Cc1sc2c(c1C)C(c1ccc(Cl)cc1)=N[C@@H](CC(=O)Nc1n[nH]c(=O)c3ccccc13)c1nnc(C)n1-2` [Compound 8] was tested. Which IC50 [1] did it give?
**A.** 11 nM

**Q.** What about the IC50 [2] of the same compound?
**A.** 51 nM

**Q.** `Cc1sc2c(c1C)C(c1ccc(Cl)cc1)=N[C@@H](CC(=O)Nc1ccc3c(c1)C1(CC1)C(=O)N3)c1nnc(C)n1-2` [Compound 9] was tested. Which IC50 [1] did it give?
**A.** 11 nM

**Q.** And the IC50 [2]?
**A.** 49 nM

**Q.** What does the source list for `Cc1sc2c(c1C)C(c1ccc(Cl)cc1)=N[C@@H](CC(=O)Nc1ccc3c(c1)C(=O)NC31CC1)c1nnc(C)n1-2` [Compound 10]?
**A.** IC50 [1]: 16 nM; IC50 [2]: 81 nM

**Q.** What does the source list for `Cc1sc2c(c1C)C(c1ccc(Cl)cc1)=N[C@@H](CC(=O)Nc1ccc3c(c1)C1(CC1)NC3=O)c1nnc(C)n1-2` [Compound 12]?
**A.** IC50 [1]: 12 nM; IC50 [2]: 40 nM

**Q.** `Cc1sc2c(c1C)C(c1ccc(Cl)cc1)=N[C@@H](CC(=O)Nc1ccc3c(c1)COC3)c1nnc(C)n1-2` [Compound 16] was tested. Which IC50 [1] did it give?
**A.** 12 nM

**Q.** And the IC50 [2]?
**A.** 60 nM

**Q.** With `CC(=O)N1Cc2ccc(NC(=O)C[C@@H]3N=C(c4ccc(Cl)cc4)c4c(sc(C)c4C)-n4c(C)nnc43)cc2C1` [Compound 17] as the compound, how does the IC50 [1] read?
**A.** 7 nM

**Q.** What about the IC50 [2] of the same compound?
**A.** 24 nM

**Q.** What does the source list for `Cc1sc2c(c1C)C(c1ccc(Cl)cc1)=N[C@@H](CC(=O)Nc1ccc3c(c1)CNC3)c1nnc(C)n1-2` [Compound 18]?
**A.** IC50 [1]: 8 nM; IC50 [2]: 23 nM

**Q.** Which results are given for `Cc1sc2c(c1C)C(c1ccc(Cl)cc1)=N[C@@H](CC(=O)Nc1ccc3c(c1)CN(S(C)(=O)=O)C3)c1nnc(C)n1-2` [Compound 19]?
**A.** IC50 [1]: 8 nM; IC50 [2]: 49 nM

**Q.** `Cc1sc2c(c1C)C(c1ccc(Cl)cc1)=N[C@@H](CC(=O)Nc1ccc3c(c1)CN(C(N)=O)C3)c1nnc(C)n1-2` [Compound 20] was tested. Which IC50 [1] did it give?
**A.** 11 nM

**Q.** And the IC50 [2]?
**A.** 169 nM

**Q.** With `Cc1sc2c(c1C)C(c1ccc(Cl)cc1)=N[C@@H](CC(=O)Nc1ccc3c(c1)CC(F)(F)C3)c1nnc(C)n1-2` [Compound 21] as the compound, how does the IC50 [1] read?
**A.** 34 nM

**Q.** What about the IC50 [2] of the same compound?
**A.** 522 nM

**Q.** With `Cc1sc2c(c1C)C(c1ccc(Cl)cc1)=N[C@@H](CC(=O)Nc1ccc3c(c1)C(=O)SC3)c1nnc(C)n1-2` [Compound 22] as the compound, how does the IC50 [1] read?
**A.** 10 nM

**Q.** And the IC50 [2]?
**A.** 199 nM

**Q.** Which IC50 [1] does the source give for `Cc1sc2c(c1C)C(c1ccc(Cl)cc1)=N[C@@H](CC(=O)Nc1ccc3c(c1)C[C@@H](F)C3)c1nnc(C)n1-2` [Compound 24] here?
**A.** 17 nM

**Q.** What about the IC50 [2] of the same compound?
**A.** 206 nM

**Q.** Which IC50 [1] does the source give for `Cc1sc2c(c1C)C(c1ccc(Cl)cc1)=N[C@@H](CC(=O)Nc1ccc3c(c1C)COC3)c1nnc(C)n1-2` [Compound 25] here?
**A.** 20 nM

**Q.** What about the IC50 [2] of the same compound?
**A.** 79 nM

**Q.** How did the IC50 [1] turn out when `Cc1cc2c(cc1NC(=O)C[C@@H]1N=C(c3ccc(Cl)cc3)c3c(sc(C)c3C)-n3c(C)nnc31)COC2` [Compound 26] was run?
**A.** 30 nM

**Q.** What about the IC50 [2] of the same compound?
**A.** 112 nM

**Q.** With `Cc1sc2c(c1C)C(c1ccc(Cl)cc1)=N[C@@H](CC(=O)Nc1ccc3c(c1)CC1(COC1)C3)c1nnc(C)n1-2` [Compound 27] as the compound, how does the IC50 [1] read?
**A.** 9 nM

**Q.** And the IC50 [2]?
**A.** 55 nM

**Q.** With `Cc1sc2c(c1C)C(c1ccc(Cl)cc1)=N[C@@H](CC(=O)Nc1cc3c(cc1Cl)COC3)c1nnc(C)n1-2` [Compound 28] as the compound, how does the IC50 [1] read?
**A.** 15 nM

**Q.** And the IC50 [2]?
**A.** 60 nM

**Q.** Which IC50 [1] does the source give for `Cc1sc2c(c1C)C(c1ccc(Cl)cc1)=N[C@@H](CC(=O)Nc1cc3c(cc1F)COC3)c1nnc(C)n1-2` [Compound 29] here?
**A.** 16 nM

**Q.** What about the IC50 [2] of the same compound?
**A.** 74 nM

**Q.** For `Cc1sc2c(c1C)C(c1ccc(Cl)cc1)=N[C@@H](CC(=O)Nc1ccc3c(c1)C(=O)OC3)c1nnc(C)n1-2` [Compound 30], which IC50 [1] is on record?
**A.** 9 nM

**Q.** And the IC50 [2]?
**A.** 51 nM

**Q.** Which results are given for `Cc1sc2c(c1C)C(c1ccc(Cl)cc1)=N[C@@H](CC(=O)Nc1ccc3c(c1)OCCOCCOCCO3)c1nnc(C)n1-2` [Compound 31]?
**A.** IC50 [1]: 5 nM; IC50 [2]: 37 nM

**Q.** For `Cc1sc2c(c1C)C(c1ccc(Cl)cc1)=N[C@@H](CC(=O)Nc1ccc3nonc3c1)c1nnc(C)n1-2` [Compound 33], which IC50 [1] is on record?
**A.** 19 nM

**Q.** And the IC50 [2]?
**A.** 248 nM

**Q.** Which IC50 [1] does the source give for `Cc1sc2c(c1C)C(c1ccc(Cl)cc1)=N[C@@H](CC(=O)Nc1ccc3c(c1)[C@H]1CC[C@@H]3O1)c1nnc(C)n1-2` [Compound 35] here?
**A.** 12 nM

**Q.** And the IC50 [2]?
**A.** 155 nM

**Q.** Which results are given for `Cc1sc2c(c1C)C(c1ccc(Cl)cc1)=N[C@@H](CC(=O)Nc1ccc3c(c1)C(=O)NC3=O)c1nnc(C)n1-2` [Compound 36]?
**A.** IC50 [1]: 10 nM; IC50 [2]: 126 nM

**Q.** `Cc1sc2c(c1C)C(c1ccc(Cl)cc1)=N[C@@H](CC(=O)Nc1ccc3c(c1)C(C)(C)OC3=O)c1nnc(C)n1-2` [Compound 37] was tested. Which IC50 [1] did it give?
**A.** 11 nM

**Q.** And the IC50 [2]?
**A.** 148 nM
